System: KB tumor-bearing athymic nude mice
Experiment: Biodistribution of 177Lu-RedFols in KB tumor-bearing mice
Assay type: in vivo, mouse
Procedure: Athymic nude mice (Crl:CD1-Foxn^nu) were kept on a folate-deficient rodent diet (ssniff Spezialdiäten GmbH, Soest, Germany) for at least one week prior to inoculation with the tumor cells. Biodistribution studies were performed approx. two weeks after subcutaneous inoculation with KB tumor cells (5 × 10^6 in 100 μL PBS) (Supplementary Materials Section S12). […] Data were presented as the average ± SD of n = 3−4 mice.
Purpose: Biodistribution studies were performed in KB tumor-bearing athymic nude mice (Crl:CD1-Foxnnu) in order to investigate the tissue distribution profiles of the novel radioconjugates. The aim was to compare the impact of the two different albumin binders (4-(p-iodophenyl)butanoate unit vs. 5-(p-iodophenyl)pentanoate unit), and that of the in-corporation of an AMBA linker adjacent to the albumin binder on the distribution profile of the resulting folate radioconjugates.
Methods: The methods are described in the main article. The mice were sacrificed at […]

SMILES: CN1c2c(nc(N)[nH]c2=O)NC[C@H]1CNc1ccc(C(=O)N[C@@H](CCC(=O)N[C@@H](CCCCNC(=O)CN2CCN(CC(=O)O)CCN(CC(=O)O)CCN(CC(=O)O)CC2)C(=O)N[C@@H](CCCCNC(=O)c2ccc(CNC(=O)CCCCc3ccc(I)cc3)cc2)C(=O)O)C(=O)O)cc1 [[^177Lu]Lu-6R-RedFol-25, metal not drawn]
- Blood, accumulated activity (1 h p.i.): 13 ± 3 % IA/g
- Bone, accumulated activity (1 h p.i.): 1.5 ± 0.3 % IA/g
- Intestines, accumulated activity (1 h p.i.): 1.7 ± 0.3 % IA/g
- KB tumor, accumulated activity (1 h p.i.): 15 ± 1 % IA/g
- Kidneys, accumulated activity (1 h p.i.): 22 ± 3 % IA/g
- Liver, accumulated activity (1 h p.i.): 2.3 ± 0.6 % IA/g
- Lung, accumulated activity (1 h p.i.): 5.8 ± 1.7 % IA/g
- Muscle, accumulated activity (1 h p.i.): 1.4 ± 0.1 % IA/g
- Salivary glands, accumulated activity (1 h p.i.): 4.7 ± 3.3 % IA/g
- Spleen, accumulated activity (1 h p.i.): 1.7 ± 0.3 % IA/g
- Stomach, accumulated activity (1 h p.i.): 1.7 ± 0.2 % IA/g
- Tumor-to-blood ratio (1 h p.i.): 1.2 ± 0.4
- Tumor-to-kidney ratio (1 h p.i.): 0.67 ± 0.07
- Tumor-to-liver ratio (1 h p.i.): 6.8 ± 2.4
- Blood, accumulated activity (4 h p.i.): 6.1 ± 0.5 % IA/g
- Bone, accumulated activity (4 h p.i.): 1.1 ± 0.1 % IA/g
- Intestines, accumulated activity (4 h p.i.): 0.78 ± 0.15 % IA/g
- KB tumor, accumulated activity (4 h p.i.): 30 ± 3 % IA/g
- Kidneys, accumulated activity (4 h p.i.): 39 ± 2 % IA/g
- Liver, accumulated activity (4 h p.i.): 2.1 ± 0.2 % IA/g
- Lung, accumulated activity (4 h p.i.): 3.4 ± 0.1 % IA/g
- Muscle, accumulated activity (4 h p.i.): 1.3 ± 0.2 % IA/g
- Salivary glands, accumulated activity (4 h p.i.): 4.8 ± 3.2 % IA/g
- Spleen, accumulated activity (4 h p.i.): 1.2 ± 0.1 % IA/g
- Stomach, accumulated activity (4 h p.i.): 1.1 ± 0.1 % IA/g
- Tumor-to-blood ratio (4 h p.i.): 4.9 ± 0.2
- Tumor-to-kidney ratio (4 h p.i.): 0.78 ± 0.11
- Tumor-to-liver ratio (4 h p.i.): 14 ± 1
- Blood, accumulated activity (24 h p.i.): 0.16 ± 0.08 % IA/g
- Bone, accumulated activity (24 h p.i.): 0.50 ± 0.12 % IA/g
- Intestines, accumulated activity (24 h p.i.): 0.26 ± 0.06 % IA/g
- KB tumor, accumulated activity (24 h p.i.): 34 ± 5 % IA/g
- Kidneys, accumulated activity (24 h p.i.): 48 ± 4 % IA/g
- Liver, accumulated activity (24 h p.i.): 1.5 ± 0.2 % IA/g
- Lung, accumulated activity (24 h p.i.): 0.78 ± 0.23 % IA/g
- Muscle, accumulated activity (24 h p.i.): 1.1 ± 0.6 % IA/g
- Salivary glands, accumulated activity (24 h p.i.): 3.1 ± 2.0 % IA/g
- Spleen, accumulated activity (24 h p.i.): 0.60 ± 0.04 % IA/g
- Stomach, accumulated activity (24 h p.i.): 0.44 ± 0.06 % IA/g
- Tumor-to-blood ratio (24 h p.i.): 247 ± 101
- Tumor-to-kidney ratio (24 h p.i.): 0.72 ± 0.15
- Tumor-to-liver ratio (24 h p.i.): 23 ± 7

SMILES: CN1c2c(nc(N)[nH]c2=O)NCC1CNc1ccc(C(=O)NC(CCC(=O)NC(CCCCNC(=O)CN2CCN(CC(=O)[O-])CCN(CC(=O)[O-])CCN(CC(=O)[O-])CC2)C(=O)NC(CCCCNC(=O)c2ccc(CNC(=O)CCCCc3ccc(I)cc3)cc2)C(=O)O)C(=O)O)cc1.[177Lu+3] (stereo not drawn) [[^177Lu]Lu-6S-RedFol-25]
- Blood, accumulated activity (1 h p.i.): 13 ± 2 % IA/g
- Bone, accumulated activity (1 h p.i.): 1.4 ± 0.2 % IA/g
- Intestines, accumulated activity (1 h p.i.): 1.3 ± 0.3 % IA/g
- KB tumor, accumulated activity (1 h p.i.): 17 ± 2 % IA/g
- Kidneys, accumulated activity (1 h p.i.): 38 ± 5 % IA/g
- Liver, accumulated activity (1 h p.i.): 2.3 ± 0.1 % IA/g
- Lung, accumulated activity (1 h p.i.): 5.5 ± 0.8 % IA/g
- Muscle, accumulated activity (1 h p.i.): 1.2 ± 0.2 % IA/g
- Salivary glands, accumulated activity (1 h p.i.): 2.2 ± 1.5 % IA/g
- Spleen, accumulated activity (1 h p.i.): 1.4 ± 0.2 % IA/g
- Stomach, accumulated activity (1 h p.i.): 1.3 ± 0.2 % IA/g
- Tumor-to-blood ratio (1 h p.i.): 1.3 ± 0.1
- Tumor-to-kidney ratio (1 h p.i.): 0.45 ± 0.02
- Tumor-to-liver ratio (1 h p.i.): 7.4 ± 0.6
- Blood, accumulated activity (4 h p.i.): 8.4 ± 2.8 % IA/g
- Bone, accumulated activity (4 h p.i.): 1.1 ± 0.4 % IA/g
- Intestines, accumulated activity (4 h p.i.): 1.2 ± 0.4 % IA/g
- KB tumor, accumulated activity (4 h p.i.): 32 ± 8 % IA/g
- Kidneys, accumulated activity (4 h p.i.): 88 ± 23 % IA/g
- Liver, accumulated activity (4 h p.i.): 1.9 ± 0.5 % IA/g
- Lung, accumulated activity (4 h p.i.): 4.1 ± 1.4 % IA/g
- Muscle, accumulated activity (4 h p.i.): 0.92 ± 0.27 % IA/g
- Salivary glands, accumulated activity (4 h p.i.): 1.9 ± 1.1 % IA/g
- Spleen, accumulated activity (4 h p.i.): 1.3 ± 0.3 % IA/g
- Stomach, accumulated activity (4 h p.i.): 1.0 ± 0.4 % IA/g
- Tumor-to-blood ratio (4 h p.i.): 4.0 ± 1.2
- Tumor-to-kidney ratio (4 h p.i.): 0.37 ± 0.05
- Tumor-to-liver ratio (4 h p.i.): 18 ± 5
- Blood, accumulated activity (24 h p.i.): 0.15 ± 0.09 % IA/g
- Bone, accumulated activity (24 h p.i.): 0.14 ± 0.05 % IA/g
- Intestines, accumulated activity (24 h p.i.): 0.10 ± 0.03 % IA/g
- KB tumor, accumulated activity (24 h p.i.): 37 ± 4 % IA/g
- Kidneys, accumulated activity (24 h p.i.): 121 ± 13 % IA/g
- Liver, accumulated activity (24 h p.i.): 0.56 ± 0.07 % IA/g
- Lung, accumulated activity (24 h p.i.): 0.27 ± 0.06 % IA/g
- Muscle, accumulated activity (24 h p.i.): 0.10 ± 0.02 % IA/g
- Salivary glands, accumulated activity (24 h p.i.): 0.49 ± 0.04 % IA/g
- Spleen, accumulated activity (24 h p.i.): 0.42 ± 0.05 % IA/g
- Stomach, accumulated activity (24 h p.i.): 0.13 ± 0.04 % IA/g
- Tumor-to-blood ratio (24 h p.i.): 316 ± 150
- Tumor-to-kidney ratio (24 h p.i.): 0.31 ± 0.02
- Tumor-to-liver ratio (24 h p.i.): 67 ± 16
